Test results published in the NIST ThermoML archive (doi:10.1021/je0500330).

Assays:
[1] = xn = mol fraction of the nth substance listed; conditions: 298.15 K, 101.3 kPa, Liquid
[2] = refractive index (Na D-line) (dimensionless); xn = mol fraction of the nth substance listed; conditions: 298.15 K, 101.3 kPa, Liquid
[3] = refractive index (Na D-line) (dimensionless); conditions: 298.15 K; 101.33 kPa; Liquid; Standard Abbe refractometry
[4] = Liquid; for speed of sound / mass density: 298.15 K, 101.33 kPa; for speed of sound: Sing-around technique in a fixed-path interferometer; for mass density: Vibrating tube method

CCC(C)CO (stereo not given) [2-methyl-1-butanol] + CO
Conditions	mass density, [1] [kg/m3]	refractive index, [2]	speed of sound, [1] [m/s]
x2 = 0.0485	814.3	1.40702	1250.7
x2 = 0.1016	813.63	1.40511	1246.7
x2 = 0.1543	812.9	1.40324	1242.6
x2 = 0.1987	812.22	1.40162	1238.7
x2 = 0.2528	811.35	1.39907	1233.9
x2 = 0.3017	810.5	1.39712	1229
x2 = 0.3496	809.49	1.39461	1223
x2 = 0.4005	808.36	1.39181	1217
x2 = 0.4506	807.25	1.38875	1210.7
x2 = 0.4987	806.12	1.38569	1204.2
x2 = 0.5502	804.84	1.38222	1197.2
x2 = 0.6003	803.4	1.37832	1188.8
x2 = 0.6487	801.91	1.37416	1180.7
x2 = 0.7003	800.27	1.36946	1171.5
x2 = 0.7504	798.44	1.3642	1162.7
x2 = 0.8002	796.5	1.35846	1151.4
x2 = 0.8503	794.35	1.35214	1142.2
x2 = 0.9004	791.96	1.34482	1131.5
x2 = 0.9503	789.39	1.33618	1120.5

CCO [ethanol]
Conditions	mass density [kg/m3]	refractive index	speed of sound [m/s]
[3]	–	1.35916	–
[4]	785.36	–	1143

Conditions	vapor or sublimation pressure [kPa]
[4], 351.5 K	101.3

CO [methanol]
Conditions	mass density [kg/m3]	refractive index	speed of sound [m/s]
[3]	–	1.32667	–
[4]	787.14	–	1102

Conditions	vapor or sublimation pressure [kPa]
[4], 337.65 K	101.3
